Literature values as cited in paper PMC11923636, “Synthesis, Pharmacological Evaluation, and Molecular Modeling of Phthalimide Derivatives as Monoamine Oxidase and Cholinesterase Dual Inhibitors” (ACS Omega, 2025).
pIC50: −log10 of the molar value.

Tested on: MAO-B
Conditions: weak inhibition compared to the standard; ref number not given; cited from earlier work

For N-benzylphthalimide [V], the pIC50 is listed as 4.98.
